Laboratory results reported in patent US12091426B2, “Bifunctional degraders of hematopoietic progenitor kinase and therapeutic uses thereof” (Nurix Therapeutics, Inc., priority 2021, dated 2024).

Molecular target: T1, HPK1 (Homo sapiens, UniProt Q92918)
T1 construct: A HiBiT tag was introduced by CRISPR on the N terminus of HPK1 in Jurkat cells; host or cells: Jurkat cells (ATCC TIB-152), monoclonal line with CRISPR knock-in of HiBiT at the endogenous HPK1 locus
Experiment: HPK1 Cellular HiBit Degradation Assay
Format: cell-based
Settings: HiBiT HPK1 Jurkat cells, 24 hrs; for DC50: concentration at which 50% of HPK1 was remaining, read-out: DC50 Category; for Dmax: Jurkat, maximum degradation vs DMSO vehicle control, read-out: Dmax Category
How it was run: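 HPK1 levels are read by HiBiT luminescence after 24 h exposure of HiBiT-knock-in Jurkat cells to compound at 10 uM–0.1 nM final (11 points). Relative to DMSO (100%), DC50 is the concentration leaving 50% HPK1 from a variable-slope fit, and Dmax is 100 minus minimum remaining. Viability checked in-plate.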

T1 sequence (Q92918 whole entry): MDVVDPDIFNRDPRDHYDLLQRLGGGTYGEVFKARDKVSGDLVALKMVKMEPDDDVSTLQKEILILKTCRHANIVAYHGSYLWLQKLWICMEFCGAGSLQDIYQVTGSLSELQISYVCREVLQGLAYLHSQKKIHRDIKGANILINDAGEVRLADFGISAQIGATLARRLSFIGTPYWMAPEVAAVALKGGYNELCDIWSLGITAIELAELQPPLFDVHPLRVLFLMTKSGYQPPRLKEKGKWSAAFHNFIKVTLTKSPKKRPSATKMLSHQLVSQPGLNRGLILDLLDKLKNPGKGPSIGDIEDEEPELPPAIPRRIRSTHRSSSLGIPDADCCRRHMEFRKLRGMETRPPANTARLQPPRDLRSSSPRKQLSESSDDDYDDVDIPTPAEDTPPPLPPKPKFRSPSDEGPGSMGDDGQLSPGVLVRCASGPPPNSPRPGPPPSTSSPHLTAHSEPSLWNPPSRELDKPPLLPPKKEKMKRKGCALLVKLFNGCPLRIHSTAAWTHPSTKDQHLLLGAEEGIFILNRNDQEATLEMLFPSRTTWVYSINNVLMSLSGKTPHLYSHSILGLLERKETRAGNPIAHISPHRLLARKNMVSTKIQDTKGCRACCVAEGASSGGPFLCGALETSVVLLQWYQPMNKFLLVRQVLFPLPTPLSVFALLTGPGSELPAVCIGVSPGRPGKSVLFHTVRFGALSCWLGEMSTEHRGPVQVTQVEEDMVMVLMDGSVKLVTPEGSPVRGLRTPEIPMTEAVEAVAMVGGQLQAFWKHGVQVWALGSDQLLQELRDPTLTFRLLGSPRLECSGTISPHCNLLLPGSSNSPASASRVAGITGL

SMILES	DC50	Dmax
CC(C)n1cnc2cc(-c3ccc4c(c3)N([C@H]3C[C@@H](N5CCCCC5)C3)C(=O)C43CCN(C(=O)C4[C@@H]5C[C@H]4CN(C(=O)CC4CCN(c6ccc(C7CCC(=O)NC7=O)cn6)CC4)C5)CC3)nc(NC3CC3)c21 (stereo partly drawn) [Example 240, 3-(6-(4-(2-((1R,5S,6S)-6-(6-(4-(cyclopropylamino)-3-isopropyl-3H-imidazo[4,5-c]pyridin-6-yl)-2-oxo-1-((1S,3S)-3-(piperidin-1-yl)cyclobutyl)spiro[indoline-3,4′-piperidine]-1′-carbonyl)-3-azabicyclo[3.1.1]heptan-3-yl)-2-oxoethyl)piperidin-1-yl)pyridin-3-yl)piperidine-2,6-dione]	< 100 nM	> 85%
CC(C)n1cnc2cc(-c3ccc4c(c3)N([C@H]3C[C@@H](N5CCCCC5)C3)C(=O)C43CCN(C(=O)C4C5CC4CN(C(=O)[C@H]4CC[C@H](Oc6ccc(C7CCC(=O)NC7=O)cc6)CC4)C5)CC3)nc(NC3CC3)c21 (stereo partly drawn) [Example 241, 3-(4-{[(1R,4R)-4-[6-({6-[4-(cyclopropylamino)-3-(propan-2-yl)-3H-imidazo[4,5-c]pyridin-6-yl]-2-oxo-1-[(1S,3S)-3-(piperidin-1-yl)cyclobutyl]-1,2-dihydrospiro[indole-3,4′-piperidin]-1′-yl}carbonyl)-3-azabicyclo[3.1.1]heptane-3-carbonyl]cyclohexyl]oxy}phenyl)piperidine-2,6-dione]	< 100 nM	> 85%
